Laboratory results taken from US20230085307A1, “PYRIDAZINONE COMPOUND AND HERBICIDE” (NISSAN CHEMICAL CORPORATION, priority 2019, published 2023).

Tests used:
southern crabgrass [1] = test: Test Example 4: herbicidal effect by soil treatment (Table 19, symbol F); assay type: in vivo, southern crabgrass (Digitaria ciliaris); conditions: amount of applied herbicide 320 g/ha
Outline: (§1)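 Three weeks of greenhouse growth at 25° C. to 30° C. followed a uniform surface spray of water-diluted emulsion at a predetermined herbicide amount. Seeds had been sown beforehand under about 1.5 cm of sterilized diluvial soil. Grading followed criteria set out in an earlier test.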

redroot pigweed [2] = test: Test Example 4: herbicidal effect by soil treatment (Table 19, symbol N); assay type: in vivo, redroot pigweed (Amaranthus retroflexus); conditions: amount of applied herbicide 320 g/ha
Outline: as §1

green foxtail [3] = test: Test Example 4: herbicidal effect by soil treatment (Table 19, symbol G); assay type: in vivo, green foxtail (Setaria viridis); conditions: amount of applied herbicide 320 g/ha
Outline: as §1

blackgrass [4] = test: Test Example 4: herbicidal effect by soil treatment (Table 19, symbol J); assay type: in vivo, blackgrass (Alopecurus myosuroides); conditions: amount of applied herbicide 320 g/ha
Outline: as §1

windgrass [5] = test: Test Example 4: herbicidal effect by soil treatment (Table 19, symbol L); assay type: in vivo, windgrass (Apera spica-venti); conditions: amount of applied herbicide 320 g/ha
Outline: as §1

barnyard grass [6] = test: Test Example 4: herbicidal effect by soil treatment (Table 19, symbol H); assay type: in vivo, barnyard grass (Echinochloa crus-galli); conditions: amount of applied herbicide 320 g/ha
Outline: as §1

Chinese sprangletop = test: Test Example 3: herbicidal effect by foliage application, Wagner pot (Table 18, symbol D); assay type: in vivo, chinese sprangletop (Leptochloa chinensis); conditions: amount of applied herbicide 320 g/ha
Outline: (§2)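 Plants were sown in alluvial soil held under 0.1–0.5 cm standing water and grown 14 days in a greenhouse at 25–30 °C. An emulsifiable formulation, water-diluted to the set dose, was then sprayed onto the foliage, and effects were scored three weeks later using previously defined criteria.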

green foxtail [7] = test: Test Example 5: herbicidal effect by foliage application, plastic box (Table 20, symbol G); assay type: in vivo, green foxtail (Setaria viridis); conditions: foliage application, 320 g/ha, three weeks after application
Outline: (§3)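 Plants sown in sterilized diluvial soil and grown 14 days in a greenhouse at 25° C to 30° C, then sprayed on the foliage with the compound's emulsion diluted in water to a predetermined herbicide amount. Injury to weeds and crops scored three weeks after application on a visual rating scale.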

barnyard grass [8] = test: Test Example 5: herbicidal effect by foliage application, plastic box (Table 20, symbol H); assay type: in vivo, barnyard grass (Echinochloa crus-galli); conditions: foliage application, 320 g/ha, three weeks after application
Outline: as §3

lambsquarters [9] = test: Test Example 4: herbicidal effect by soil treatment (Table 19, symbol O); assay type: in vivo, lambsquarters (Chenopodium album); conditions: amount of applied herbicide 320 g/ha
Outline: as §1

chickweed [10] = test: Test Example 5: herbicidal effect by foliage application, plastic box (Table 20, symbol P); assay type: in vivo, common chickweed (Stellaria media); conditions: foliage application, 320 g/ha, three weeks after application
Outline: as §3

windgrass [11] = test: Test Example 5: herbicidal effect by foliage application, plastic box (Table 20, symbol L); assay type: in vivo, windgrass (Apera spica-venti); conditions: foliage application, 320 g/ha, three weeks after application
Outline: as §3

persian speedwell [12] = test: Test Example 4: herbicidal effect by soil treatment (Table 19, symbol R); assay type: in vivo, Persian speedwell (Veronica persica); conditions: amount of applied herbicide 320 g/ha
Outline: as §1

rice flat sedge = test: Test Example 3: herbicidal effect by foliage application, Wagner pot (Table 18, symbol E); assay type: in vivo, rice flat sedge (Cyperus iria); conditions: amount of applied herbicide 320 g/ha
Outline: as §2

barnyard grass [13] = test: Test Example 3: herbicidal effect by foliage application, Wagner pot (Table 18, symbol H); assay type: in vivo, barnyard grass (Echinochloa crus-galli); conditions: amount of applied herbicide 320 g/ha
Outline: as §2

southern crabgrass [14] = test: Test Example 5: herbicidal effect by foliage application, plastic box (Table 20, symbol F); assay type: in vivo, southern crabgrass (Digitaria ciliaris); conditions: foliage application, 320 g/ha, three weeks after application
Outline: as §3

persian speedwell [15] = test: Test Example 5: herbicidal effect by foliage application, plastic box (Table 20, symbol R); assay type: in vivo, Persian speedwell (Veronica persica); conditions: foliage application, 320 g/ha, three weeks after application
Outline: as §3

velvetleaf [16] = test: Test Example 5: herbicidal effect by foliage application, plastic box (Table 20, symbol M); assay type: in vivo, velvetleaf (Abutilon theophrasti); conditions: foliage application, 320 g/ha, three weeks after application
Outline: as §3

chickweed [17] = test: Test Example 4: herbicidal effect by soil treatment (Table 19, symbol P); assay type: in vivo, common chickweed (Stellaria media); conditions: amount of applied herbicide 320 g/ha
Outline: as §1

Italian ryegrass [18] = test: Test Example 5: herbicidal effect by foliage application, plastic box (Table 20, symbol K); assay type: in vivo, Italian ryegrass (Lolium multiflorum); conditions: foliage application, 320 g/ha, three weeks after application
Outline: as §3

Italian ryegrass [19] = test: Test Example 4: herbicidal effect by soil treatment (Table 19, symbol K); assay type: in vivo, Italian ryegrass (Lolium multiflorum); conditions: amount of applied herbicide 320 g/ha
Outline: as §1

wild oat [20] = test: Test Example 5: herbicidal effect by foliage application, plastic box (Table 20, symbol I); assay type: in vivo, wild oat (Avena fatua); conditions: foliage application, 320 g/ha, three weeks after application
Outline: as §3

redroot pigweed [21] = test: Test Example 5: herbicidal effect by foliage application, plastic box (Table 20, symbol N); assay type: in vivo, redroot pigweed (Amaranthus retroflexus); conditions: foliage application, 320 g/ha, three weeks after application
Outline: as §3

velvetleaf [22] = test: Test Example 4: herbicidal effect by soil treatment (Table 19, symbol M); assay type: in vivo, velvetleaf (Abutilon theophrasti); conditions: amount of applied herbicide 320 g/ha
Outline: as §1

lambsquarters [23] = test: Test Example 5: herbicidal effect by foliage application, plastic box (Table 20, symbol O); assay type: in vivo, lambsquarters (Chenopodium album); conditions: foliage application, 320 g/ha, three weeks after application
Outline: as §3

wild oat [24] = test: Test Example 4: herbicidal effect by soil treatment (Table 19, symbol I); assay type: in vivo, wild oat (Avena fatua); conditions: amount of applied herbicide 320 g/ha
Outline: as §1

blackgrass [25] = test: Test Example 5: herbicidal effect by foliage application, plastic box (Table 20, symbol J); assay type: in vivo, blackgrass (Alopecurus myosuroides); conditions: foliage application, 320 g/ha, three weeks after application
Outline: as §3

## CCc1nn(C)c(=O)c(-c2c(-c3ccc(Cl)cc3)sc3ccc(F)cc23)c1O [2-408]
Southern crabgrass [1]
  herbicidal effect, F: southern crabgrass: 0 (Herbicidal rate of 5% or less (almost no effect))
Redroot pigweed [2]
  herbicidal effect, N: redroot pigweed: 4 (Herbicidal rate of 70% or more and less than 90%)
Green foxtail [3]
  herbicidal effect, G: green foxtail: 0 (Herbicidal rate of 5% or less (almost no effect))
Blackgrass [4]
  herbicidal effect, J: blackgrass: 0 (Herbicidal rate of 5% or less (almost no effect))
Windgrass [5]
  herbicidal effect, L: windgrass: 0 (Herbicidal rate of 5% or less (almost no effect))
Barnyard grass [6]
  herbicidal effect, H: barnyard grass: 0 (Herbicidal rate of 5% or less (almost no effect))
Chinese sprangletop
  herbicidal effect on D: Chinese sprangletop: 4 (Herbicidal rate of 70% or more and less than 90%)
Green foxtail [7]
  G: green foxtail, herbicidal effect grade: 5 (Herbicidal rate of 90% or more (almost completely withered))
Barnyard grass [8]
  H: barnyard grass, herbicidal effect grade: 3 (Herbicidal rate of 40% or more and less than 70%)
Lambsquarters [9]
  herbicidal effect, O: lambsquarters: 3 (Herbicidal rate of 40% or more and less than 70%)
Chickweed [10]
  P: chickweed, herbicidal effect grade: 5 (Herbicidal rate of 90% or more (almost completely withered))
Windgrass [11]
  L: windgrass, herbicidal effect grade: 0 (Herbicidal rate of 5% or less (almost no effect))
Persian speedwell [12]
  herbicidal effect, R: persian speedwell: 0 (Herbicidal rate of 5% or less (almost no effect))
Rice flat sedge
  herbicidal effect on E: rice flat sedge: 5 (Herbicidal rate of 90% or more (almost completely withered))
Barnyard grass [13]
  herbicidal effect on H: barnyard grass: 4 (Herbicidal rate of 70% or more and less than 90%)
Southern crabgrass [14]
  F: southern crabgrass, herbicidal effect grade: 4 (Herbicidal rate of 70% or more and less than 90%)
Persian speedwell [15]
  R: persian speedwell, herbicidal effect grade: 5 (Herbicidal rate of 90% or more (almost completely withered))
Velvetleaf [16]
  M: velvetleaf, herbicidal effect grade: 4 (Herbicidal rate of 70% or more and less than 90%)
Chickweed [17]
  herbicidal effect, P: chickweed: 0 (Herbicidal rate of 5% or less (almost no effect))
Italian ryegrass [18]
  K: Italian ryegrass, herbicidal effect grade: 3 (Herbicidal rate of 40% or more and less than 70%)
Italian ryegrass [19]
  herbicidal effect, K: Italian ryegrass: 0 (Herbicidal rate of 5% or less (almost no effect))
Wild oat [20]
  I: wild oat, herbicidal effect grade: 1 (Herbicidal rate of 5% or more and less than 20%)
Redroot pigweed [21]
  N: redroot pigweed, herbicidal effect grade: 5 (Herbicidal rate of 90% or more (almost completely withered))
Velvetleaf [22]
  herbicidal effect, M: velvetleaf: 1 (Herbicidal rate of 5% or more and less than 20%)
Lambsquarters [23]
  O: lambsquarters, herbicidal effect grade: 5 (Herbicidal rate of 90% or more (almost completely withered))
Wild oat [24]
  herbicidal effect, I: wild oat: 0 (Herbicidal rate of 5% or less (almost no effect))
Blackgrass [25]
  J: blackgrass, herbicidal effect grade: 0 (Herbicidal rate of 5% or less (almost no effect))
